Earlier results as cited in patent publication US5891465A, “Delivery of biologically active material in a liposomal formulation for administration into the mouth” (BioZone Laboratories, Inc., priority 1996, dated 1999).

Experiments:
[1] = tablet for absorption through the buccal mucosa
[2] = tablets under the tongue

## C[C@]12CCC(=O)C=C1CC[C@@H]1[C@@H]2CC[C@@]2(C)[C@H]1CC[C@]2(C)O [methyltestosterone]
[1]
  androgenic activity relative to oral tablets: twice the androgenic activity

## O=[N+]([O-])OCC(CO[N+](=O)[O-])O[N+](=O)[O-] [nitroglycerin]
[2]
  onset: rapid onset
